Results reported in PMC4604124, “In Vitro Characterization of the Pharmacological Properties of the Anti-Cancer Chelator, Bp4eT, and Its Phase I Metabolites” (PLoS ONE, 2015).
pIC50: −log10 of the molar value. Several values for one entry are separate records, joined by “and”; a condition that tells them apart may be missing. Equal values may be shown once.

Key:
cancer cells = system: cancer cells; set-up: method as in PMID 17602603, PMID 23074173, PMID 2758414, PMID 20036563; conditions: cited from earlier work
[1] = Ascorbate oxidation assay (redox activity of iron complexes); assay type: biochemical; conditions: for %Fe 30min: ascorbate oxidation as % of the Fe control (Fe 100%): IBE 0.1, 30 min;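 for %Fe 30min (ascorbate oxidation, Fe 100%), průměr: IBE 3 means excess free chelator over iron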;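 for %Fe 30min (ascorbate oxidation, Fe 100%): IBE 3 means excess free chelator over iron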;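 for %Fe 30min: ascorbate oxidation as % of the Fe control (Fe 100%): IBE 0.1 means iron-binding equivalents with iron in excess over chelator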;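 for Change of absorbance, odečet 0 (time 0 subtracted), čas 10, průměr: IBE 3 means excess free chelator over 10 µM FeCl3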;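 for Change of absorbance, odečet 0 (time 0 subtracted), čas 10: IBE 3 means excess free chelator over 10 µM FeCl3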
Experimental: The ascorbate oxidation assay was used to assess the redox activity of the iron complexes of the chelators using an established protocol. In brief, 100 μM ascorbic acid was prepared immediately prior to the experiment and incubated either alone or in the presence of 10 μM FeCl3 in a 50-fold molar excess (500 μM) of citrate and the chelators. Chelators were assayed at iron-binding equivalents (IBE) of 0.1 (excess of iron), 1 (fully coordinated iron—chelator complexes) and 3 (excess of free chelator). […] The decrease of absorbance between the two time points was calculated and expressed as a percentage of control without the chelator.

[2] = system: 3T3 mouse embryo fibroblasts; experiment: MTT cytotoxicity assay, 3T3 cells; assay type: cell-based; conditions: Mus musculus, Fibroblast, 72 h, 3T3, 72 h; read-out: IC50
Experimental: (§1) For cytotoxicity experiments, cancer cells were seeded at a density of 5,000 (MCF-7), 10,000 (HL-60) or 2,000 cells/well (HCT116 and A549) in 96-well plates (TPP) for 24 h/37°C prior to the addition of examined agents. The non-cancerous cells, 3T3 and H9c2 cells, were cultured for 24 h/37°C in 96-well plates at a density of 10,000 cells/well, the medium was then changed to serum- and pyruvate-free DMEM (Sigma-Aldrich) and incubated with the cells for another 24 h/37°C. The cytotoxic effects of Bp4eT and its metabolites were studied at different concentrations after a 72 h/37°C incubation. In order to aid the dissolution of the lipophilic ligands, 0.1% dimethyl sulfoxide (v/v) (DMSO; Sigma-Aldrich) was present in the culture medium of all groups. At this concentration, DMSO had no effect on cellular proliferation or viability.
(§2) The viability of cells were determined using an MTT assay (Sigma-Aldrich) according to previously established methods. The optical density of soluble MTT was measured at λ = 570 nm, subtracting the λ = 690 nm background using a Tecan Infinite 200M plate reader (Tecan Group, Männedorf, Switzerland). The viability or proliferation of experimental groups was expressed as a percentage of the untreated controls (100%).
(§3) SigmaStat for Windows 3.5 (Systat Software, San Jose, CA, USA) statistical software package was utilized to analyze results. The data are expressed as the mean ± SD of a given number of experiments. Statistical significance was determined using a one-way ANOVA with a Bonferroni post-hoc test or Student’s t-test. The results were considered to be statistically significant when p < 0.05. The IC50 values were calculated using CalcuSyn 2.0 software (Biosoft, Cambridge, UK). Cell cycle analysis was evaluated using MultiCycle AV Software (Phoenix Flow Systems, San Diego, CA, USA).

[3] = set-up: method as in PMID 24254882; conditions: E and Z isomers, after Bp4eT; cited from earlier work
H9c2 cardiomyoblasts = experiment: MTT cytotoxicity assay, H9c2 cells; assay type: cell-based, rat; conditions: H9c2, 72 h/37°C, MTT; mean ± SD, n ≥ 4; read-out: IC50
Experimental: as §1, §2, §3

MCF-7 cells = experiment: Cellular 59Fe uptake from 59Fe2-transferrin; assay type: cell-based, human; conditions: 25 μM, 3 h/37°C, MCF-7, 0.75 μM 59Fe2-Tf
Excerpt: Human transferrin (Sigma) was labeled with ^56Fe or ^59Fe (PerkinElmer, Massachusetts, USA) to produce ^56Fe2-transferrin or ^59Fe2-transferrin (^59Fe2-Tf), respectively, with a final specific activity of 500 pCi/pmol Fe, as previously described. Unbound ^59Fe was removed by exhaustive vacuum dialysis against a large excess of 0.15 M NaCl buffered to pH 7.4 with 1.4% NaHCO3 by standard methods.
The ability of the chelators to prevent cellular ^59Fe uptake from ^59Fe2-transferrin was examined using standard techniques. In brief, confluent MCF-7 cells in 6-well plates were incubated with 0.75 μM ^59Fe2-Tf for 3 h/37°C in the presence of Bp4eT or its metabolites (25 μM). The cells were then washed four times with ice-cold PBS and the level of internalized ^59Fe was determined by incubating the cell monolayer for 30 min/4°C with the general protease, Pronase (1 mg/mL; Sigma-Aldrich). The cells were then removed from the monolayer with a plastic spatula on ice and centrifuged for 1 min/12,000 x g/4°C. The supernatant represents membrane-bound, Pronase-sensitive ^59Fe that was released by the protease, while the Pronase-insensitive fraction represents internalized ^59Fe. The amount of internalized ^59Fe was expressed as a percentage of ^59Fe internalized by control (untreated) cells.

[4] = system: labile iron pool of MCF-7 cells; experiment: Calcein-AM assay, access to the labile iron pool; assay type: cell-based, human; conditions: 10 μM, MCF-7, mean of 6 experiments
Experimental: These experiments were performed according to Glickstein et al. with slight modifications. The MCF-7 cells were seeded in 96-well plates (10,000 cells/well) and allowed to adhere for 24 h/37°C. Cells were loaded with iron using the cellular iron donor, ferric ammonium citrate (530 μg/mL), 24 h prior to the experiment, and then washed. To prevent potential interference, especially with regard to various trace elements, the medium was replaced with ADS buffer (prepared using Millipore water supplemented with 116 mM NaCl, 5.3 mM KCl, 1 mM CaCl2, 1.2 mM MgSO4, 1.13 mM NaH2PO4, 5 mM D-glucose, and 20 mM HEPES, pH 7.4). Cells were then loaded with 2 μM of the cell-permeable calcein green acetoxymethyl ester (calcein-AM; Molecular Probes, Oregon, USA) for 30 min/37°C and washed. Cellular esterases cleave the acetoxymethyl groups to form the cell membrane-impermeable compound, calcein green. The fluorescence of calcein green is quenched upon binding iron. The intracellular fluorescence (λex = 488 nm; λem = 530 nm) of calcein green was then followed as a function of time (10 min after the addition of 10 μM Bp4eT or its metabolites) at 37°C using the Tecan Infinite 200M plate reader. The iron chelation efficacy of the metabolites in cells was expressed as a percentage of the efficacy of the parent chelator, Bp4eT (100%).

[5] = system: cancer cells (HL-60, MCF-7, HCT116, A549) and non-cancerous cells (H9c2, 3T3); experiment: MTT cytotoxicity assay, summary over the cell line panel; assay type: cell-based; conditions: HL-60, MCF-7, HCT116, A549; 72 h; read-out: IC50, range over cancer cells
Experimental: as §1, §2, §3

[6] = sheet IBE 1, time 10, replicates
[7] = sheet IBE 1, time 20, replicates
[8] = sheet IBE 1, time 30, replicates

O=C(O)c1ccc(-n2nc(-c3ccccc3O)nc2-c2ccccc2O)cc1 [deferasirox]
IC50 values against cancer cells (cancer cells): μM range

CC(=O)N(O)CCCCCNC(=O)CCC(=O)N(O)CCCCCNC(=O)CCC(=O)N(O)CCCCCN [DFO, deferoxamine, reference compound]
%Fe 30min: ascorbate oxidation as % of the Fe control (Fe 100%) ([1]; mean (průměr)): 95.6%
%Fe 30min: ascorbate oxidation as % of the Fe control (Fe 100%) ([1]; single wells): 92.32% and 94.84% and 89.62% and 108.6% and 104.8% and 93.48%
Change of absorbance after subtraction of time 0 (odečet 0) ([1]; IBE 0.1, time 10, mean (průměr)): -0.0289
Change of absorbance after subtraction of time 0 (odečet 0) ([1]; IBE 0.1, time 20, mean (průměr)): -0.06128
Change of absorbance after subtraction of time 0 (odečet 0) ([1]; IBE 0.1, time 30, mean (průměr)): -0.09056
Absorbance (ascorbate, λ = 265 nm) ([1]; IBE 0.1, čas 0 (time 0), mean (průměr)): 0.8374
Absorbance (ascorbate, λ = 265 nm) ([1]; IBE 0.1, čas 0 (time 0), single wells): 0.8482 and 0.8386 and 0.8297 and 0.8393 and 0.8347 and 0.8423
Absorbance (ascorbate, λ = 265 nm) ([1]; IBE 0.1, čas 10 (time 10), mean (průměr)): 0.8085
Absorbance (ascorbate, λ = 265 nm) ([1]; IBE 0.1, čas 10 (time 10), single wells): 0.8014 and 0.8085 and 0.8061 and 0.8115 and 0.8174 and 0.8155
Absorbance (ascorbate, λ = 265 nm) ([1]; IBE 0.1, čas 20 (time 20), mean (průměr)): 0.7761
Absorbance (ascorbate, λ = 265 nm) ([1]; IBE 0.1, čas 20 (time 20), single wells): 0.7691 and 0.7765 and 0.7756 and 0.7789 and 0.7837 and 0.7797
Absorbance (ascorbate, λ = 265 nm) ([1]; IBE 0.1, čas 30 (time 30), mean (průměr)): 0.7468
Absorbance (ascorbate, λ = 265 nm) ([1]; IBE 0.1, čas 30 (time 30), single wells): 0.7397 and 0.7469 and 0.7473 and 0.7447 and 0.754 and 0.7546
Ascorbate oxidation, % of the control ([1]; IBE 1): significant (p < 0.001) decrease
Ascorbate oxidation, % of the control ([1]; IBE 3): significant (p < 0.001) decrease
%Fe 30min (ascorbate oxidation, Fe = 100%), průměr (mean) ([1]; sheet IBE 1, 30min, Fe 100%, mean): 34.33%
%Fe 30min (ascorbate oxidation, Fe = 100%), single replicates ([1]; sheet IBE 1, 30min, Fe 100%, replicates): 31.7% and 34.66% and 23.38% and 46.3% and 44.12% and 39.04%
raw reading at čas 0 (time 0), průměr (mean) ([1]; sheet IBE 1, time 0, mean of 9 readings): 0.8386
raw reading at čas 0 (time 0), single replicates ([1]; sheet IBE 1, time 0, replicates of 2014-03-24 (two runs) and 2014-03-25): 0.8558 and 0.8596 and 0.828 and 0.8361 and 0.827 and 0.8501
odečet 0 (reading minus time 0 reading) at čas 10, průměr (mean) ([1]; sheet IBE 1, time 10, mean): -0.01
raw reading at čas 10 (time 10), průměr (mean) ([1]; sheet IBE 1, time 10, mean of 9 readings): 0.8286
odečet 0 (reading minus time 0 reading) at čas 10, single replicates [1, 6]: -0.00635 and -0.01167 and -0.00323 and -0.01849 and -0.01895 and -0.01001
raw reading at čas 10 (time 10), single replicates [1, 6]: 0.8216 and 0.8244 and 0.8238 and 0.8316 and 0.8369 and 0.8496
odečet 0 (reading minus time 0 reading) at čas 20, průměr (mean) ([1]; sheet IBE 1, time 20, mean): -0.0179
raw reading at čas 20 (time 20), průměr (mean) ([1]; sheet IBE 1, time 20, mean of 9 readings): 0.8207
odečet 0 (reading minus time 0 reading) at čas 20, single replicates [1, 7]: -0.01539 and -0.01649 and -0.00893 and -0.03069 and -0.02809 and -0.02068
raw reading at čas 20 (time 20), single replicates [1, 7]: 0.8126 and 0.8196 and 0.8181 and 0.8194 and 0.8278 and 0.8389
odečet 0 (reading minus time 0 reading) at čas 30, průměr (mean) ([1]; sheet IBE 1, time 30, mean): -0.0308
raw reading at čas 30 (time 30), průměr (mean) ([1]; sheet IBE 1, time 30, mean of 9 readings): 0.8078
odečet 0 (reading minus time 0 reading) at čas 30, single replicates [1, 8]: -0.02739 and -0.02994 and -0.0202 and -0.04369 and -0.04163 and -0.03684
raw reading at čas 30 (time 30), single replicates [1, 8]: 0.8006 and 0.8061 and 0.8068 and 0.8064 and 0.8142 and 0.8227
%Fe 30min (ascorbate oxidation, Fe 100%), průměr ([1]; sheet IBE 3, 30min, Fe alone = 100%, mean (průměr) of the 9 replicates): 14.03%
%Fe 30min (ascorbate oxidation, Fe 100%) ([1]; sheet IBE 3, 30min, Fe alone = 100%, single replicates): 16.83% and 16.2% and 10.25% and 18.5% and 12.77% and 8.453%
Change of absorbance, odečet 0 (time 0 subtracted), čas 10, průměr ([1]; sheet IBE 3, time 10 minus time 0, mean (průměr)): -0.00229
Change of absorbance, odečet 0 (time 0 subtracted), čas 10 ([1]; sheet IBE 3, time 10 minus time 0, single replicates): -0.00147 and -0.00159 and -0.00408 and -0.00649 and -0.00197 and 0.00214
Change of absorbance, odečet 0 (time 0 subtracted), čas 20, průměr ([1]; sheet IBE 3, time 20 minus time 0, mean (průměr)): -0.00588
Change of absorbance, odečet 0 (time 0 subtracted), čas 20 ([1]; sheet IBE 3, time 20 minus time 0, single replicates): -0.00984 and -0.00475 and -0.00555 and -0.0054 and -0.00607 and -0.00117
Change of absorbance, odečet 0 (time 0 subtracted), čas 30, průměr ([1]; sheet IBE 3, time 30 minus time 0, mean (průměr)): -0.01297
Change of absorbance, odečet 0 (time 0 subtracted), čas 30 ([1]; sheet IBE 3, time 30 minus time 0, single replicates): -0.01562 and -0.01504 and -0.00952 and -0.01694 and -0.01169 and -0.00774
IC50 values against cancer cells (cancer cells): μM range

CCNC(=O)NN=C(c1ccccc1)c1ccccn1 [Bp4eS, 2-benzoylpyridine 4-ethylsemicarbazone]
pIC50 [2]: < 3.00
Concentration in plasma [3]: < 20 nM
pIC50 (H9c2 cardiomyoblasts): 3.46
Internalized 59Fe uptake, % of the control (MCF-7 cells): comparable to the untreated control
Chelation efficacy: fluorescence of free calcein at t = 600 s as percentage of Bp4eT [4]: ≤ 1.0%
pIC50 [5]: 3.27 to 4.34
